According to patent US9220714B2, “Nitrofuran compounds for the treatment of cancer and angiogenesis” (WOMEN AND INFANTS HOSPITAL OF RHODE ISLAND, priority 2006, dated 2015):
Values after ≈ are worked out from the molar mass of the structure shown. Where two headings read alike, the source gives them in different places.

Tests used:
[1] = test system: SMS-KCNR cells; assay: cells; settings: Homo sapiens, read-out: concentration giving 50% inhibition in DNA synthesis (BrdU incorporation)
Method: (§1) Cells were labeled with 10 μM BrdU for 6 hours. The cells were fixed and the color was developed using peroxidase conjugated anti-BrdU antibody and TMB (3,3′,5,5′-tetramethylbenzidine) chromogenic substrate. Absorbance was measured at 450 nm using a microplate reader (Multiskan RC, Fisher Scientific, Pittsburgh, Pa.). In this assay, the color intensity correlates directly to the amount of BrdU incorporation which in turn reflects proliferation.

[2] = test system: normal epithelial cells; settings: normal epithelial cells in culture; cited from earlier work
[3] = test system: SMS-KCNR cells; settings: 96 hours
Method: Vehicle treated cells were used as control.
Vehicle treated cells were used as control. […] The cells were washed with PBS, fixed with paraformaldehyde, permeabilized with Triton X-100 at room temperature, labeled with fluorescein-12-dUTP using terminal deoxynucleotidyl transferase and counterstained with propidium iodide (5 μg/ml). Negative controls (without terminal transferase) were included in each experiment. Apoptosis was detected by fluorescence microscopy (Nikon Eclipse TE2000-E fitted with a cooled CCD camera, Japan). Propidium iodide staining was used to detect both non-apoptotic and apoptotic cells and fluorescein staining was used to detect the apoptotic cells.

[4] = test system: neuroblastoma cell lines
[5] = test system: rat aortic rings; settings: with growth factors, day 9
Source text: (A) Vehicle treated aorta without growth factor (B) Vehicle treated aorta with growth factor.
Matrigel bed mimics physiological extracellular matrix representing its natural composition and architecture. Due to these features, Matrigel enables several cell types, including endo-thelial cells, to maintain in culture their in vivo phenotype and 3-dimensional organization. Aortic arches were removed from euthanized rats and immediately transferred to a culture dish containing ice-cold serum-free media. The peri-aortic fibroadipose tissue was carefully removed with fine microdissection forceps and iridectomy scissors paying special attention not to damage the aortic wall. Aortic rings (1 mm thick) were sectioned and extensively rinsed in 5 consecutive washes of Medium 200. […] The explants were examined every second day with a Nikon Eclipse TS100 inverted microscope at an appropriate magnification and photographed at the end of 9th day. On the ninth day, the capillary sprouting were quantified by grading and recording the extent of sprouting directly reflecting angiogenesis using Nikon Eclipse TS100 fluorescent microscope (Japan) and Fuji digital camera.

[6] = test system: neuroblastoma; settings: for tumor marker VMA: initial VMA 22
Source text: Chagas disease is a parasitic disease caused by Trypanasoma cruzi endemic to South America.

[7] = study of 67 children using nifurtimox for Chagas disease; cited from earlier work
[8] = test system: SMS-KCNR cells; settings: 0-20 μg/ml, after 72 hours of treatment
[9] = test system: SMS-KCN cells; assay: cells; settings: Homo sapiens
Method: (§2) Cell viability was assessed using the MTS assay as described in Materials and Methods and expressed as percent of vehicle treated control. The data represents the mean SSD of four replicates.
(§3) The human neuroblastoma cell lines IMR-32 (ATCC), SMS-KCN, SMS-KCNR (from John Maris, CHOP, Philadelphia, Pa.) were maintained in RPMI 1640 media supplemented with 10% fetal bovine serum, 100 units/ml penicillin and 100 μg/ml streptomycin at 37° C. in a humidified incubator. Cells were grown in 6 well plates or 100 mm dishes to 75% confluency and serum deprived (RPMI 1640 with 0.1% BSA) overnight before treatment.
(§4) Cell viability was measured using the CellTiter 96 AQ One Solution Cell Proliferation Assay kit (Promega, Madison Wis.)^4. […] Vehicle treated cells were used as control (0.001% DMSO). At the end of the incubation period, MTS reagent (3-(4,5-dimethylthiazol-2-yl)-5-(3-carboxymethoxyphenyl)-2-(4-sulfophenyl)-2H-tetrazolium)^12 was added to each well in fresh media to a final concentration of 0.5 mg/ml and incubated for 4 hours. Absorbance was measured at 490 nm using a microplate reader (Multiskan RC, Fisher Scientific Pittsburgh, Pa.). Cell viability is represented as the mean percentage+/−SD of absorbance before and after treatment.

[10] = test system: IMR-32 cells; assay: cells; settings: Homo sapiens
Method: as §2, §3, §4

[11] = test system: SMS-KCNR cells; settings: 150 mg/kg/day in food pellets, 30 days, nude mice
[12] = test system: caspase-3; settings: 1, 10 and 20 μg/ml, 24 hours
Method: as §3

[13] = test system: Akt; settings: SMS-KCNR
Method: as §3

[14] = test system: sympathetic neurons; settings: not seen in parasympathetic neurons or non-neuronal cells
[15] = test system: Human Endothelial Cells (HEC); assay: cells; settings: Endothelial cell, read-out: inhibition of DNA synthesis in HEC
Method: as §1
Human Endothelial Cells (HEC) (1×10^4 cells) were cultured in 96 well plates, serum deprived for 16 hours and treated with […], 1.25, 2.5, 5, 10 and 20 μg/ml in Medium 200 in the presence or absence of 50 ng/ml VEGF for 72 hours. BrdU (10 μM final concentration) was added to the cells and re-incubated for further 6 hours. The cells were fixed and the color was developed using anti-BrdU-POD antibody and TMB chromogenic substrate. The assay was performed according to the manufacturer's instructions. In this colorimetric cell proliferation assay, the color intensity correlates directly to the amount of BrdU incorporated into the DNA which in turn represents proliferation. The results are expressed as percentage BrdU incorporation.

[16] = test system: ERK1/2; settings: SMS-KCNR, data not shown
[17] = test system: SMS-KCNR cells; assay: cells; settings: Homo sapiens
Method: as §2
SMS-KCNR cells were pretreated with pancaspase inhibitor, Z-VAD-FMK. […] Cell viability was measured by MTS assay. The reversal of cytotoxicity by pancaspase inhibitor was determined by comparing the viability of riifurtimox treated cells in the presence or absence of the pancaspase inhibitor. The values are the Mean±SD of quadruplicates.
as §3, §4
Inactivation of caspases results in inhibition of caspase mediated apoptosis. […] The cell viability was measured by MTS assay.

[18] = test system: HEC; assay: cells; settings: Homo sapiens, 8 h, read-out: inhibition of tube formation
Method: Stimulation with growth factors leads to morphological differentiation of endothelial cells and formation of tube like structures on matrices. The endothelial tube formation assay was performed in Matrigel bed. Briefly, Matrigel bed was prepared by using pre-cooled pipettes, plates and tubes on ice. Growth factor-reduced Matrigel was thawed overnight at 4° C. and mixed to homogeneity, Culture plates (48-well) were coated with 0.1 ml of Matrigel and allowed to gelatinize at 37° C. for 30 minutes. […] Capillary networks were photographed using a phase-contrast microscope (Nikon Eclipse TS 100, fitted with Fuji digital camera, Japan), and the number of tubes was quantified by counting the branching points from four quadrants of each well.

[19] = 120 h, read-out: cell viability
[20] = read-out: IC50, concentration required to reach 50% inhibition of growth

## CC1CS(=O)(=O)CCN1/N=C/c1ccc([N+](=O)[O-])o1 (stereo not drawn) [Nifurtimox]
[1]
  IC50: 18.1 µg/mL (≈ 63 µM)
[2]
  cytotoxic effects on normal epithelial cells: not observed
[3]; 1 μg/ml
  morphological alterations: decrease in axon length was apparent
[3]; 10 μg/ml
  morphological alterations: the decrease in axon length was more prominent and was associated with rounding of cells
[3]; 20 μg/ml
  morphological alterations: rounded up and floating
[4]
  cytotoxicity after pretreatment with AMPT (tyrosine hydroxylase inhibitor): reduction of cytotoxicity
[5]; 20 μg/ml
  micro-vascular sprouting of aortic rings: complete inhibition of micro-vascular sprouting
[5]; 1 and 10 μg/ml
  capillary network of aortic rings: sparse and incomplete
[6]; Patient A, after four months, with cyclophosphamide and topotecan
  tumor response: significant and continuous tumor regression
[6]; Patient A, after two weeks, Nifurtimox alone
  tumor response: tumor stabilization
[6]; Patient B, after two months, with ascorbic acid, cyclophosphamide and topotecan
  tumor markers: normalization of tumor markers
[6]; Patient C, Day 21, before ascorbic acid
  tumor marker VMA: 17
[6]; Patient C, Day 21, initially positive for tumor
  bone marrow tumor status: negative
[6]; Patient C, after 3 cycles of treatment
  tumor marker VMA: 13
[6]; patient with Chagas disease, 15-20 mg/kg/day oral, with cyclophosphamide and topotecan
  tumor response: tumor subsequently regressed
[6]; same patient restarted on nifurtimox, cyclophosphamide and topotecan
  tumor response after relapse: again demonstrated tumor regression
[6]; three patients with relapsed neuroblastoma, 20 mg/kg/day, alone or in combination
  tumor response: tumor regression
[7]
  tolerability in children versus adults: much better tolerated in children
[8]
  apoptosis (TUNEL positive nuclei): dose dependent increase in apoptosis
[9]; [19]
  viability at 20 µg/mL: 59%
[9]; [20]
  IC50: 25.4 µg/mL (≈ 88.4 µM)
[10]; IMR-32, 120 h, read-out: cell viability
  viability at 20 µg/mL: 78%
[10]; IMR-32, read-out: IC50, concentration required to reach 50% inhibition of growth
  IC50: 52.9 µg/mL (≈ 184 µM)
[11]
  decrease in tumor size versus untreated: greater than three fold decrease
  tumor size: 0.3 grams
[12]
  activation of caspase-3 (19 and 17 kDa bands): dose dependent and strong activation
[13]; 1.0 and 10 μg/ml, in the presence of serum
  serum stimulated Akt phosphorylation: completely inhibited
[13]; 10 and 20 μg/ml, BDNF stimulation
  BDNF stimulated Akt phosphorylation: significantly inhibited
[13]; BDNF stimulation
  total Akt protein levels: not altered
[14]
  sensitivity of sympathetic neurons to nifurtimox: enhanced sensitivity
[15]
  inhibition at 5 µg/mL: 30%
  inhibition at 10 µg/mL: 50%
  inhibition at 20 µg/mL: > 80%
[16]
  phosphorylation of ERK1/2: not affected
[17]; 96 h, read-out: decrease of cell viability compared to vehicle treated control
  cytotoxicity at 10 µg/mL: 50%
[17]; [19]
  viability at 20 µg/mL: 37%
[17]; [20]
  IC50: 14.7 µg/mL (≈ 51.2 µM)
[17]; read-out: cell viability with Z-VAD-FMK pretreatment
  viability at 10 µg/mL: 90%
[18]
  inhibition at 20 µg/mL: 50%
